Source: patent publication US20260248134A1, “A METHOD FOR CONTROLLING WEEDS” (UPL MAURITIUS LIMITED, priority 2023, published 2026)

What was measured:
Format in all cases: in vivo
Ipomoea hederifolia [1] = assay: Control of Ipomoea hederifolia weed at different application rates (Example 6)
Description: The effect of application of asulam was observed on the growth of Ipomoea hederifolia weed at 21, 28 and 35 DAA (days after application) at different application rates. The percentage (%) control of weeds has been evaluated and disclosed in Table 6.

Ipomoea hederifolia [2] = assay: Control of Ipomoea hederifolia weed by asulam alone, with adjuvant, with additional herbicide (Example 1); conditions: 4500 g a.i/ha
Method: The effect of application of asulam alone, asulam along with an adjuvant, and asulam along with an additional herbicide was observed on the growth of Ipomoea hederifolia weed at 42, 49, 56 and 63 DAA (days after application). The percentage (%) control of weeds was evaluated to assess the efficacy of the compositions and the same has been disclosed in Table 1. Untreated control was also compared, wherein no herbicidal composition was applied and thus, no control of weeds was observed.

Digitaria insularis = assay: Control of weeds at pre-emergence stage (Example 9)
Description: (§1) The effect of application of asulam was observed on the growth of weeds at pre-emergence stage for different application rates. The percentage (%) control of weeds has been evaluated and disclosed in Table 9.

Eleusine indica = assay: as above
Description: as §1

Digitaria nuda = assay: Control of weeds at post-emergence stage (Example 10)
Description: (§2) The effect of application of asulam was observed on the growth of weeds at post-emergence stage for different application rates. The percentage (%) control of weeds has been evaluated and disclosed in Table 10.

Cynodon dactylon = assay: as above
Description: as §2

Brachiaria plantaginea = assay: as above; conditions: 1800 g a.i/ha, 28 DAA
Description: as §2

What does the source list for `COC(=O)NS(=O)(=O)c1ccc(N)cc1` [Asulam, asulam]?
Control of Ipomoea hederifolia (Ipomoea hederifolia [1]; 1800 g a.i/ha, 21 DAA): 63%; Control of Ipomoea hederifolia (Ipomoea hederifolia [1]; 1800 g a.i/ha, 28 DAA): 77%; Control of Ipomoea hederifolia (Ipomoea hederifolia [1]; 1800 g a.i/ha, 35 DAA): 76%; Control of Ipomoea hederifolia (Ipomoea hederifolia [1]; 2250 g a.i/ha, 21 DAA): 71%; Control of Ipomoea hederifolia (Ipomoea hederifolia [1]; 2250 g a.i/ha, 28 DAA): 83%; Control of Ipomoea hederifolia (Ipomoea hederifolia [1]; 2250 g a.i/ha, 35 DAA): 85%; Control of Ipomoea hederifolia (Ipomoea hederifolia [1]; 2500 g a.i/ha, 21 DAA): 70%; Control of Ipomoea hederifolia (Ipomoea hederifolia [1]; 2500 g a.i/ha, 28 DAA): 84%; Control of Ipomoea hederifolia (Ipomoea hederifolia [1]; 2500 g a.i/ha, 35 DAA): 88%; Control of Ipomoea hederifolia (Ipomoea hederifolia [2]; 42 DAA): 13.8%; Control of Ipomoea hederifolia (Ipomoea hederifolia [2]; 49 DAA): 11.3%; Control of Ipomoea hederifolia (Ipomoea hederifolia [2]; 56 DAA): 8.8%; percentage (%) control of weeds (Digitaria insularis; 1000 g a.i/ha, 28 DAA): 94%; percentage (%) control of weeds (Digitaria insularis; 1000 g a.i/ha, 35 DAA): 98%; percentage (%) control of weeds (Digitaria insularis; 1000 g a.i/ha, 49 DAA): 100%; percentage (%) control of weeds (Digitaria insularis; 1200 g a.i/ha, 28 DAA): 98%; percentage (%) control of weeds (Digitaria insularis; 1200 g a.i/ha, 35 DAA): 100%; percentage (%) control of weeds (Digitaria insularis; 1200 g a.i/ha, 49 DAA): 100%; percentage (%) control of weeds (Digitaria insularis; 1500 g a.i/ha, 28 DAA): 99%; percentage (%) control of weeds (Digitaria insularis; 1500 g a.i/ha, 35 DAA): 100%; percentage (%) control of weeds (Digitaria insularis; 1500 g a.i/ha, 49 DAA): 100%; percentage (%) control of weeds (Digitaria insularis; 1800 g a.i/ha, 28 DAA): 99%; percentage (%) control of weeds (Digitaria insularis; 1800 g a.i/ha, 35 DAA): 100%; percentage (%) control of weeds (Digitaria insularis; 1800 g a.i/ha, 49 DAA): 100%; percentage (%) control of weeds (Digitaria insularis; 2250 g a.i/ha, 28 DAA): 100%; percentage (%) control of weeds (Digitaria insularis; 2250 g a.i/ha, 35 DAA): 100%; percentage (%) control of weeds (Digitaria insularis; 2250 g a.i/ha, 49 DAA): 100%; percentage (%) control of weeds (Digitaria insularis; 2500 g a.i/ha, 28 DAA): 99%; percentage (%) control of weeds (Digitaria insularis; 2500 g a.i/ha, 35 DAA): 100%; percentage (%) control of weeds (Digitaria insularis; 2500 g a.i/ha, 49 DAA): 100%; percentage (%) control of weeds (Eleusine indica; 1200 g a.i/ha, 28 DAA): 83%; percentage (%) control of weeds (Eleusine indica; 1200 g a.i/ha, 35 DAA): 78%; percentage (%) control of weeds (Eleusine indica; 1200 g a.i/ha, 49 DAA): 99%; percentage (%) control of weeds (Eleusine indica; 1500 g a.i/ha, 28 DAA): 88%; percentage (%) control of weeds (Eleusine indica; 1500 g a.i/ha, 35 DAA): 88%; percentage (%) control of weeds (Eleusine indica; 1500 g a.i/ha, 49 DAA): 99%; percentage (%) control of weeds (Eleusine indica; 1800 g a.i/ha, 28 DAA): 90%; percentage (%) control of weeds (Eleusine indica; 1800 g a.i/ha, 35 DAA): 91%; percentage (%) control of weeds (Eleusine indica; 1800 g a.i/ha, 49 DAA): 100%; percentage (%) control of weeds (Eleusine indica; 2250 g a.i/ha, 28 DAA): 92%; percentage (%) control of weeds (Eleusine indica; 2250 g a.i/ha, 35 DAA): 93%; percentage (%) control of weeds (Eleusine indica; 2250 g a.i/ha, 49 DAA): 100%; percentage (%) control of weeds (Eleusine indica; 2500 g a.i/ha, 28 DAA): 91%; percentage (%) control of weeds (Eleusine indica; 2500 g a.i/ha, 35 DAA): 92%; percentage (%) control of weeds (Eleusine indica; 2500 g a.i/ha, 49 DAA): 100%; percentage (%) control of weeds (Digitaria nuda; 2800 g a.i/ha, 28 DAA): 99%; percentage (%) control of weeds (Digitaria nuda; 2800 g a.i/ha, 35 DAA): 99%; percentage (%) control of weeds (Digitaria nuda; 2800 g a.i/ha, 49 DAA): 99%; percentage (%) control of weeds (Digitaria nuda; 3200 g a.i/ha, 28 DAA): 96%; percentage (%) control of weeds (Digitaria nuda; 3200 g a.i/ha, 35 DAA): 100%; percentage (%) control of weeds (Digitaria nuda; 3200 g a.i/ha, 49 DAA): 100%; percentage (%) control of weeds (Digitaria nuda; 4000 g a.i/ha, 28 DAA): 93%; percentage (%) control of weeds (Digitaria nuda; 4000 g a.i/ha, 35 DAA): 94%; percentage (%) control of weeds (Digitaria nuda; 4000 g a.i/ha, 49 DAA): 94%; percentage (%) control of weeds (Cynodon dactylon; 2400 g a.i/ha, 28 DAA): 94%; percentage (%) control of weeds (Cynodon dactylon; 2400 g a.i/ha, 35 DAA): 97%; percentage (%) control of weeds (Cynodon dactylon; 2400 g a.i/ha, 49 DAA): 99%; percentage (%) control of weeds (Cynodon dactylon; 2800 g a.i/ha, 28 DAA): 96%; percentage (%) control of weeds (Cynodon dactylon; 2800 g a.i/ha, 35 DAA): 97%; percentage (%) control of weeds (Cynodon dactylon; 2800 g a.i/ha, 49 DAA): 100%; percentage (%) control of weeds (Cynodon dactylon; 3200 g a.i/ha, 28 DAA): 94%; percentage (%) control of weeds (Cynodon dactylon; 3200 g a.i/ha, 35 DAA): 94%; percentage (%) control of weeds (Cynodon dactylon; 3200 g a.i/ha, 49 DAA): 96%; percentage (%) control of weeds (Cynodon dactylon; 4000 g a.i/ha, 28 DAA): 95%; percentage (%) control of weeds (Cynodon dactylon; 4000 g a.i/ha, 35 DAA): 96%; percentage (%) control of weeds (Cynodon dactylon; 4000 g a.i/ha, 49 DAA): 100%; percentage (%) control of weeds (Brachiaria plantaginea): 92%
